Measurements reported in PubChem BioAssay AID1963978 (Molecular Pharmacology Branch, DTP, NCI, 2024).

Tested on: 616215-338-R-J1-PDC spheroids with HUVEC/MSC, viability
Assay: Anticancer human tumor 616215-338-R-J1-PDC patient-derived colon adenocarcinoma cell line growth inhibition [PI3K]
Details: for viability, T/C: stronger effect = lower value
Summary of the method: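 Spheroid viability read-out. Co-cultures contained the tumor line plus HUVEC and human MSCs. Each agent was paired with a PI3K inhibitor (inavolisib, alpelisib, duvelisib, copanlisib) across half-log dilutions starting at clinical Cmax, or at 10 microM when Cmax was unknown.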

[1] = curve of first compound, second compound 0.00316 µM
[2] = curve of first compound, second compound 0.01 µM
[3] = curve of first compound, second compound 0.0316 µM
[4] = curve of first compound, second compound 0.1 µM
[5] = curve of first compound, second compound 0.316 µM
[6] = curve of first compound, second compound 1 µM
[7] = second compound 0.00316 µM, first compound 0.0316 µM
[8] = second compound 0.00316 µM, first compound 0.1 µM
[9] = second compound 0.01 µM, first compound 0.0316 µM
[10] = second compound 0.01 µM, first compound 0.1 µM
[11] = second compound 0.0316 µM, first compound 0.0316 µM
[12] = second compound 0.0316 µM, first compound 0.1 µM
[13] = second compound 0.0316 µM, first compound 0.316 µM
[14] = second compound 0.0316 µM, first compound 1 µM
[15] = second compound 0.0316 µM, first compound 3.16 µM
[16] = second compound 0.0316 µM, first compound 10 µM
[17] = second compound 0.1 µM, first compound 0.0316 µM
[18] = second compound 0.1 µM, first compound 0.1 µM
[19] = second compound 0.1 µM, first compound 0.316 µM
[20] = second compound 0.1 µM, first compound 1 µM
[21] = second compound 0.1 µM, first compound 3.16 µM
[22] = second compound 0.1 µM, first compound 10 µM
[23] = second compound 0.316 µM, first compound 0.0316 µM
[24] = second compound 0.316 µM, first compound 0.1 µM
[25] = second compound 0.316 µM, first compound 0.316 µM
[26] = second compound 0.316 µM, first compound 1 µM
[27] = second compound 0.316 µM, first compound 3.16 µM
[28] = second compound 0.316 µM, first compound 10 µM
[29] = second compound 1 µM, first compound 0.0316 µM
[30] = second compound 1 µM, first compound 0.1 µM
[31] = second compound 1 µM, first compound 0.316 µM
[32] = second compound 1 µM, first compound 1 µM
[33] = second compound 1 µM, first compound 3.16 µM
[34] = second compound 1 µM, first compound 10 µM
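Also: spheroids exposed to agents for seven days before the viability read.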

For `C[C@@H](NC(=O)c1ncnc(N)c1Cl)c1ncc(C(=O)Nc2cc(C(F)(F)F)c(Cl)cn2)s1`, the viability, T/C (compound 0.0316 µM) was 103% [middle of 4 runs], the viability, T/C (compound 0.1 µM) was 92.3% [middle of 4 runs] and the viability, T/C (compound 0.316 µM) was 112% [middle of 4 runs]. For the same compound, the viability, T/C (compound 1 µM) was 106% [middle of 4 runs], the viability, T/C (compound 3.16 µM) was 109% [middle of 4 runs] and the viability, T/C (compound 10 µM) was 86.8% [middle of 4 runs]. The IC50 (curve of compound) was > 10000 nM.

In the case of `Cn1cnc2c(F)c(Nc3ccc(Br)cc3Cl)c(C(=O)NOCCO)cc21`, the viability, T/C (compound 0.00949 µM) is reported as 96.1% [middle of 4 runs], the viability, T/C (compound 0.03 µM) is reported as 94.7% [middle of 4 runs] and the viability, T/C (compound 0.0949 µM) is reported as 92.1% [middle of 4 runs]. The viability, T/C (compound 0.3 µM) was 80.6% [middle of 4 runs], the viability, T/C (compound 0.949 µM) was 58.5% [middle of 4 runs] and the viability, T/C (compound 3 µM) was 45.3% [middle of 4 runs].

`Cn1ncc(Cl)c1-c1cc(C(=O)NC(CN)Cc2cccc(F)c2)sc1Cl` (stereo not drawn) + COc1c(OCCCN2CCOCC2)ccc2c3n(c(=NC(=O)c4cnc(N)nc4)nc12)CCN3 gave an IC50 [1] of 2980 nM, an IC50 [2] of 2960 nM and an IC50 [3] of 2490 nM. For the same compound, the IC50 [4] was 1890 nM, the IC50 [5] was < 31.6 nM and the IC50 [6] was < 31.6 nM. It also gave a viability, T/C [7] of 95.1%, a viability, T/C [8] of 90.2% and a viability, T/C (second compound 0.00316 µM, first compound 0.316 µM) of 91.7%. The viability, T/C (second compound 0.00316 µM, first compound 1 µM) was 99.6%, the viability, T/C (second compound 0.00316 µM, first compound 3.16 µM) was 47.6% and the viability, T/C (second compound 0.00316 µM, first compound 10 µM) was 16.6%. The viability, T/C [9] was 108%, the viability, T/C [10] was 96.3% and the viability, T/C (second compound 0.01 µM, first compound 0.316 µM) was 94.6%. For the same compound, the viability, T/C (second compound 0.01 µM, first compound 1 µM) was 92.9%, the viability, T/C (second compound 0.01 µM, first compound 3.16 µM) was 47.3% and the viability, T/C (second compound 0.01 µM, first compound 10 µM) was 17.6%. It also gave a viability, T/C [11] of 102%, a viability, T/C [12] of 104% and a viability, T/C [13] of 96.7%. The viability, T/C [14] was 75.2%, the viability, T/C [15] was 43.9% and the viability, T/C [16] was 15.1%. For the same compound, the viability, T/C [17] was 90.8%, the viability, T/C [18] was 86.8% and the viability, T/C [19] was 79.7%. It also gave a viability, T/C [20] of 72.8%, a viability, T/C [21] of 32.2% and a viability, T/C [22] of 12.9%. It also gave a viability, T/C [23] of 45%, a viability, T/C [24] of 35% and a viability, T/C [25] of 35.5%. It also gave a viability, T/C [26] of 32%, a viability, T/C [27] of 27.2% and a viability, T/C [28] of 15.3%. It also gave a viability, T/C [29] of 21.4%, a viability, T/C [30] of 28.2% and a viability, T/C [31] of 16.9%. For the same compound, the viability, T/C [32] was 20.9%, the viability, T/C [33] was 16.6% and the viability, T/C [34] was 7.24%.

For `C#Cc1c(F)ccc2cc(O)cc(-c3ncc4c(N5CC6CCC(C5)N6)nc(OCC56CCCN5CC(F)C6)nc4c3F)c12` (stereo not drawn) + Cc1nc(NC(=O)N2CCCC2C(N)=O)sc1-c1ccnc(C(C)(C)C(F)(F)F)c1, the IC50 [3] was > 10000 nM, the IC50 [4] was > 10000 nM and the IC50 [5] was > 10000 nM. The IC50 [6] was > 10000 nM, the IC50 (curve of first compound, second compound 3.16 µM) was > 10000 nM and the IC50 (curve of first compound, second compound 10 µM) was 9140 nM. The viability, T/C [11] was 108%, the viability, T/C [12] was 106% and the viability, T/C [13] was 102%. The viability, T/C [14] was 93.3%, the viability, T/C [15] was 82% and the viability, T/C [16] was 67.6%. It also gave a viability, T/C [17] of 97.2%, a viability, T/C [18] of 104% and a viability, T/C [19] of 100%. For the same compound, the viability, T/C [20] was 104%, the viability, T/C [21] was 96.1% and the viability, T/C [22] was 54.5%. It also gave a viability, T/C [23] of 95.3%, a viability, T/C [24] of 99.2% and a viability, T/C [25] of 96.4%. For the same compound, the viability, T/C [26] was 84.8%, the viability, T/C [27] was 86.3% and the viability, T/C [28] was 54.9%. It also gave a viability, T/C [29] of 110%, a viability, T/C [30] of 101% and a viability, T/C [31] of 91.2%. The viability, T/C [32] was 89.9%, the viability, T/C [33] was 74.6% and the viability, T/C [34] was 63.6%. It also gave a viability, T/C (second compound 3.16 µM, first compound 0.0316 µM) of 112%, a viability, T/C (second compound 3.16 µM, first compound 0.1 µM) of 104% and a viability, T/C (second compound 3.16 µM, first compound 0.316 µM) of 93.8%. For the same compound, the viability, T/C (second compound 3.16 µM, first compound 1 µM) was 85.1%, the viability, T/C (second compound 3.16 µM, first compound 3.16 µM) was 78.1% and the viability, T/C (second compound 3.16 µM, first compound 10 µM) was 53%. The viability, T/C (second compound 10 µM, first compound 0.0316 µM) was 88.3%, the viability, T/C (second compound 10 µM, first compound 0.1 µM) was 93.2% and the viability, T/C (second compound 10 µM, first compound 0.316 µM) was 93.5%. The viability, T/C (second compound 10 µM, first compound 1 µM) was 88.9%, the viability, T/C (second compound 10 µM, first compound 3.16 µM) was 82.5% and the viability, T/C (second compound 10 µM, first compound 10 µM) was 47.1%.

With `CC(C)n1nc(-c2ccc3oc(N)nc3c2)c2c(N)ncnc21` + COc1c(OCCCN2CCOCC2)ccc2c3n(c(=NC(=O)c4cnc(N)nc4)nc12)CCN3 the IC50 [1] was > 100 nM, the IC50 [2] was > 100 nM and the IC50 [3] was 80.3 nM. The IC50 [4] was 26.2 nM, the IC50 [5] was < 0.316 nM and the IC50 [6] was < 0.316 nM. For the same compound, the viability, T/C (second compound 0.00316 µM, first compound 0.000316 µM) was 104%, the viability, T/C (second compound 0.00316 µM, first compound 0.001 µM) was 109% and the viability, T/C (second compound 0.00316 µM, first compound 0.00316 µM) was 97.4%. The viability, T/C (second compound 0.00316 µM, first compound 0.01 µM) was 105%, the viability, T/C [7] was 116% and the viability, T/C [8] was 65.6%. It also gave a viability, T/C (second compound 0.01 µM, first compound 0.000316 µM) of 104%, a viability, T/C (second compound 0.01 µM, first compound 0.001 µM) of 100% and a viability, T/C (second compound 0.01 µM, first compound 0.00316 µM) of 103%. The viability, T/C (second compound 0.01 µM, first compound 0.01 µM) was 108%, the viability, T/C [9] was 122% and the viability, T/C [10] was 67.2%. The viability, T/C (second compound 0.0316 µM, first compound 0.000316 µM) was 106%, the viability, T/C (second compound 0.0316 µM, first compound 0.001 µM) was 99.2% and the viability, T/C (second compound 0.0316 µM, first compound 0.00316 µM) was 117%. The viability, T/C (second compound 0.0316 µM, first compound 0.01 µM) was 117%, the viability, T/C [11] was 97.3% and the viability, T/C [12] was 39%. It also gave a viability, T/C (second compound 0.1 µM, first compound 0.000316 µM) of 96.2%, a viability, T/C (second compound 0.1 µM, first compound 0.001 µM) of 102% and a viability, T/C (second compound 0.1 µM, first compound 0.00316 µM) of 88.9%. It also gave a viability, T/C (second compound 0.1 µM, first compound 0.01 µM) of 68.7%, a viability, T/C [17] of 47.7% and a viability, T/C [18] of 30.1%. For the same compound, the viability, T/C (second compound 0.316 µM, first compound 0.000316 µM) was 37.9%, the viability, T/C (second compound 0.316 µM, first compound 0.001 µM) was 42.1% and the viability, T/C (second compound 0.316 µM, first compound 0.00316 µM) was 34.9%. It also gave a viability, T/C (second compound 0.316 µM, first compound 0.01 µM) of 45.2%, a viability, T/C [23] of 35.5% and a viability, T/C [24] of 22.1%. For the same compound, the viability, T/C (second compound 1 µM, first compound 0.000316 µM) was 24.3%, the viability, T/C (second compound 1 µM, first compound 0.001 µM) was 29.1% and the viability, T/C (second compound 1 µM, first compound 0.00316 µM) was 25.1%. The viability, T/C (second compound 1 µM, first compound 0.01 µM) was 27.8%, the viability, T/C [29] was 30.1% and the viability, T/C [30] was 13.2%.

In the case of `Cn1nccc1Nc1nccc(-c2ccn(C(CO)c3ccc(Cl)c(F)c3)c(=O)c2)n1` (stereo not drawn), the viability, T/C (compound 0.0316 µM) is reported as 96.3% [middle of 4 runs], the viability, T/C (compound 0.1 µM) is reported as 101% [middle of 4 runs] and the viability, T/C (compound 0.316 µM) is reported as 90.4% [middle of 4 runs]. The viability, T/C (compound 1 µM) was 66.4% [middle of 4 runs], the viability, T/C (compound 3.16 µM) was 56.4% [middle of 4 runs] and the viability, T/C (compound 10 µM) was 40.1% [middle of 4 runs]. The IC50 (curve of compound) was 3.91 µM [middle of 4 runs].

With `Cc1nc(NC(=O)N2CCCC2C(N)=O)sc1-c1ccnc(C(C)(C)C(F)(F)F)c1` (stereo not drawn) the viability, T/C (compound 0.0316 µM) was 97.3% [middle of 8 runs], the viability, T/C (compound 0.1 µM) was 102% [middle of 8 runs] and the viability, T/C (compound 0.316 µM) was 106% [middle of 8 runs]. The viability, T/C (compound 1 µM) was 108% [middle of 8 runs], the viability, T/C (compound 3.16 µM) was 100% [middle of 8 runs] and the viability, T/C (compound 10 µM) was 99.5% [middle of 8 runs]. The IC50 (compound alone, run of 05/08/2023) was > 10000 nM.
